# Results reported in patent US9549558B2, “Herbicidal azines” (BASF SE, priority 2012, dated 2017).
# Tests used:
# Format in all cases: in vivo
# [1] = tested on: ABUTH (Abutilon theophrasti); assay: greenhouse post-emergence herbicidal test
# Description: (§1) The culture containers used were plastic flowerpots containing loamy sand with approximately 3.0% of humus as the substrate. The seeds of the test plants were sown separately for each species.
# (§2) For the post-emergence treatment, the test plants were first grown to a height of 3 to 15 cm, depending on the plant habit, and only then treated with the active ingredients which had been suspended or emulsified in water. For this purpose, the test plants were either sown directly and grown in the same containers, or they were first grown separately as seedlings and transplanted into the test containers a few days prior to treatment.
# (§3) Depending on the species, the plants were kept at 10-25° C. or 20-35° C., respectively.
# (§4) The test period extended over 2 to 4 weeks. During this time, the plants were tended, and their response to the individual treatments was evaluated.
# (§5) Evaluation was carried out using a scale from 0 to 100. 100 means no emergence of the plants, or complete destruction of at least the aerial moieties, and 0 means no damage, or normal course of growth. A moderate herbicidal activity is given at values of at least 60, a good herbicidal activity is given at values of at least 70, and a very good herbicidal activity is given at values of at least 85.
# (§6) The plants used in the greenhouse experiments were of the following species: […]
# [2] = tested on: AMARE (Amaranthus retroflexus); assay: greenhouse post-emergence herbicidal test
# Description: as §1, §2, §3, §4, §5, §6
# SETFA (Setaria faberi) = assay: greenhouse pre-emergence herbicidal test
# Description: as §1
# (§7) For the pre-emergence treatment, the active ingredients, which had been suspended or emulsified in water, were applied directly after sowing by means of finely distributing nozzles. The containers were irrigated gently to promote germination and growth and subsequently covered with transparent plastic hoods until the plants had rooted. This cover caused uniform germination of the test plants, unless this had been impaired by the active ingredients.
# as §3, §4, §5, §6
# [3] = tested on: AMARE (Amaranthus retroflexus); assay: greenhouse pre-emergence herbicidal test
# Description: (§8) The seeds of the test plants were sown separately for each species. For the pre-emergence treatment, the active ingredients, which had been suspended or emulsified in water, were applied directly after sowing by means of finely distributing nozzles. The containers were irrigated gently to promote germination and growth and subsequently covered with transparent plastic hoods until the plants had rooted. This cover caused uniform germination of the test plants, unless this had been impaired by the active ingredients. Depending on the species, the plants were kept at 10-25° C. or 20-35° C., respectively. The test period extended over 2 to 4 weeks. During this time, the plants were tended, and their response to the individual treatments was evaluated. […] A moderate herbicidal activity is given at values of at least 60, a good herbicidal activity is given at values of at least 70, and a very good herbicidal activity is given at values of at least 85. The plants used in the greenhouse experiments were of the following species: [table]
# STEME (Stellaria media) = assay: greenhouse pre-emergence herbicidal test
# Description: as §1, §7, §3, §4, §5, §6
# [4] = tested on: ABUTH (Abutilon theophrasti); assay: greenhouse pre-emergence herbicidal test
# Description: as §8
# [5] = tested on: CAPBP (Capsella bursa-pastoris); assay: greenhouse pre-emergence herbicidal test; settings: CAPBP
# Description: as §1, §7, §3, §4, §5, §6
# [6] = tested on: ECHCG (Echinocloa crus-galli); assay: greenhouse pre-emergence herbicidal test
# Description: as §1, §7, §3, §4, §5, §6
compound,measurement,setting,value
CC(C)(F)c1nc(N)nc(Nc2c(F)cc(F)cc2F)n1 [Example 28],herbicidal activity,[1]; 0.125 kg/ha,very good (a very good herbicidal activity is given at values of at least 85)
same,herbicidal activity,[2]; 0.125 kg/ha,very good (a very good herbicidal activity is given at values of at least 85)
CC(C)(F)c1nc(N)nc(Nc2c(F)ccc(F)c2Cl)n1 [Example 36],herbicidal activity,[1]; 0.062 kg/ha,very good (a very good herbicidal activity is given at values of at least 85)
same,herbicidal activity,[2]; 0.062 kg/ha,very good (a very good herbicidal activity is given at values of at least 85)
C=C(C)c1nc(N)nc(Nc2c(F)c(F)c(F)c(F)c2F)n1 [Example 53],herbicidal activity,SETFA (Setaria faberi); 0.125 kg/ha,good (a good herbicidal activity is given at values of at least 70)
same,herbicidal activity,[3]; 0.125 kg/ha,very good (a very good herbicidal activity is given at values of at least 85)
CC(C)(C#N)c1nc(N)nc(Nc2c(F)c(F)c(F)c(F)c2F)n1 [Example 64],herbicidal activity,STEME (Stellaria media); 125 g/ha,very good (a very good herbicidal activity is given at values of at least 85)
same,herbicidal activity,[4]; 125 g/ha,very good (a very good herbicidal activity is given at values of at least 85)
same,herbicidal activity,[3]; 125 g/ha,very good (a very good herbicidal activity is given at values of at least 85)
Nc1nc(Nc2c(F)c(F)c(F)c(F)c2F)nc(C(F)(F)C(F)(F)F)n1 [Example 68],herbicidal activity,[5]; 125 g/ha,very good (a very good herbicidal activity is given at values of at least 85)
same,herbicidal activity,STEME (Stellaria media); 125 g/ha,very good (a very good herbicidal activity is given at values of at least 85)
same,herbicidal activity,[3]; 125 g/ha,very good (a very good herbicidal activity is given at values of at least 85)
CC(C)(C)c1nc(N)nc(Nc2c(F)ccc(F)c2F)n1 [Example 80],herbicidal activity,[6]; 125 g/ha,very good (a very good herbicidal activity is given at values of at least 85)
same,herbicidal activity,[5]; 125 g/ha,very good (a very good herbicidal activity is given at values of at least 85)
same,herbicidal activity,STEME (Stellaria media); 125 g/ha,very good (a very good herbicidal activity is given at values of at least 85)
CCC(CC)c1nc(N)nc(Nc2c(F)c(F)c(F)c(F)c2F)n1 [Example 83],herbicidal activity,[6]; 250 g/ha,very good (a very good herbicidal activity is given at values of at least 85)
same,herbicidal activity,[5]; 250 g/ha,very good (a very good herbicidal activity is given at values of at least 85)
same,herbicidal activity,STEME (Stellaria media); 250 g/ha,very good (a very good herbicidal activity is given at values of at least 85)
Nc1nc(Nc2c(F)ccc(Cl)c2F)nc(C(F)(F)F)n1 [Example 126],herbicidal activity,[1]; 1000 g/ha,good (a good herbicidal activity is given at values of at least 70)
same,herbicidal activity,[2]; 1000 g/ha,very good (a very good herbicidal activity is given at values of at least 85)
Nc1nc(CC2CC2)nc(Nc2c(F)cc(F)cc2F)n1 [Example 141],herbicidal activity,[6]; 1000 g/ha,good (a good herbicidal activity is given at values of at least 70)
same,herbicidal activity,SETFA (Setaria faberi); 1000 g/ha,very good (a very good herbicidal activity is given at values of at least 85)
same,herbicidal activity,[3]; 1000 g/ha,very good (a very good herbicidal activity is given at values of at least 85)
Nc1nc(Nc2c(F)cc(F)cc2F)nc(C2CCC2)n1 [Example 142],herbicidal activity,SETFA (Setaria faberi); 500 g/ha,good (a good herbicidal activity is given at values of at least 70)
same,herbicidal activity,[4]; 500 g/ha,good (a good herbicidal activity is given at values of at least 70)
same,herbicidal activity,[3]; 500 g/ha,very good (a very good herbicidal activity is given at values of at least 85)
CC(Cl)(Cl)c1nc(N)nc(Nc2c(F)c(F)c(F)c(F)c2F)n1 [Example 147],herbicidal activity,[6]; 250 g/ha,very good (a very good herbicidal activity is given at values of at least 85)
same,herbicidal activity,SETFA (Setaria faberi); 250 g/ha,very good (a very good herbicidal activity is given at values of at least 85)
same,herbicidal activity,[3]; 250 g/ha,very good (a very good herbicidal activity is given at values of at least 85)
Nc1nc(Nc2c(F)c(F)cc(F)c2F)nc(C(F)F)n1 [Example 150],herbicidal activity,SETFA (Setaria faberi); 500 g/ha,very good (a very good herbicidal activity is given at values of at least 85)
same,herbicidal activity,[4]; 500 g/ha,very good (a very good herbicidal activity is given at values of at least 85)
same,herbicidal activity,[3]; 500 g/ha,very good (a very good herbicidal activity is given at values of at least 85)
N#Cc1cccc(F)c1Nc1nc(N)nc(C(F)(F)F)n1 [Example 151],herbicidal activity,[1]; 500 g/ha,good (a good herbicidal activity is given at values of at least 70)
COc1ccc(F)c(F)c1Nc1nc(N)nc(C(F)(F)F)n1 [Example 158],herbicidal activity,[1]; 1000 g/ha,very good (a very good herbicidal activity is given at values of at least 85)
Nc1nc(Nc2c(F)c(F)c(F)c(F)c2F)nc(C2CCC(C(F)(F)F)CC2)n1 (centres unmarked) [Example 165],herbicidal activity,[6]; 1000 g/ha,very good (a very good herbicidal activity is given at values of at least 85)
same,herbicidal activity,SETFA (Setaria faberi); 1000 g/ha,very good (a very good herbicidal activity is given at values of at least 85)
same,herbicidal activity,[3]; 1000 g/ha,very good (a very good herbicidal activity is given at values of at least 85)
COC1CCC(c2nc(N)nc(Nc3c(F)c(F)c(F)c(F)c3F)n2)CC1 (centres unmarked) [Example 167],herbicidal activity,SETFA (Setaria faberi); 500 g/ha,very good (a very good herbicidal activity is given at values of at least 85)
same,herbicidal activity,[4]; 500 g/ha,good (a good herbicidal activity is given at values of at least 70)
same,herbicidal activity,[3]; 500 g/ha,very good (a very good herbicidal activity is given at values of at least 85)
CC(C)(C)C1CCC(c2nc(N)nc(Nc3c(F)c(F)c(F)c(F)c3F)n2)CC1 (centres unmarked) [Example 177],herbicidal activity,SETFA (Setaria faberi); 500 g/ha,good (a good herbicidal activity is given at values of at least 70)
same,herbicidal activity,[3]; 500 g/ha,very good (a very good herbicidal activity is given at values of at least 85)
CC=C(C)c1nc(N)nc(Nc2c(F)c(F)c(Br)c(F)c2F)n1 [Example 194],herbicidal activity,SETFA (Setaria faberi); 500 g/ha,good (a good herbicidal activity is given at values of at least 70)
CCCCC(C#N)c1nc(N)nc(Nc2c(F)ccc(F)c2F)n1 (centres unmarked) [Example 197],herbicidal activity,SETFA (Setaria faberi); 1000 g/ha,good (a good herbicidal activity is given at values of at least 70)
CCC(C)(Cl)c1nc(N)nc(Nc2c(F)c(F)cc(F)c2F)n1 (centres unmarked) [Example 205],herbicidal activity,[6]; 125 g/ha,very good (a very good herbicidal activity is given at values of at least 85)
same,herbicidal activity,SETFA (Setaria faberi); 125 g/ha,very good (a very good herbicidal activity is given at values of at least 85)
same,herbicidal activity,[3]; 125 g/ha,very good (a very good herbicidal activity is given at values of at least 85)
Nc1nc(Nc2c(F)ccc(F)c2F)nc(C2CCCC2)n1 [Example 212],herbicidal activity,[6]; 500 g/ha,very good (a very good herbicidal activity is given at values of at least 85)
same,herbicidal activity,SETFA (Setaria faberi); 500 g/ha,very good (a very good herbicidal activity is given at values of at least 85)
same,herbicidal activity,[3]; 500 g/ha,very good (a very good herbicidal activity is given at values of at least 85)
N#CC1(c2nc(N)nc(Nc3c(F)c(F)cc(F)c3F)n2)CC1 [Example 216],herbicidal activity,SETFA (Setaria faberi); 250 g/ha,good (a good herbicidal activity is given at values of at least 70)
same,herbicidal activity,[4]; 250 g/ha,good (a good herbicidal activity is given at values of at least 70)
same,herbicidal activity,[3]; 250 g/ha,very good (a very good herbicidal activity is given at values of at least 85)
CC(C)(F)c1nc(N)nc(Nc2c(F)cc([N+](=O)[O-])cc2F)n1 [Example 220],herbicidal activity,SETFA (Setaria faberi); 500 g/ha,good (a good herbicidal activity is given at values of at least 70)
CC(C)(C)C(=O)N(c1nc(N)nc(C(C)(C)C)n1)c1c(F)c(F)cc(F)c1F [Example 286],herbicidal activity,SETFA (Setaria faberi); 125 g/ha,very good (a very good herbicidal activity is given at values of at least 85)
same,herbicidal activity,[4]; 125 g/ha,very good (a very good herbicidal activity is given at values of at least 85)
same,herbicidal activity,[3]; 125 g/ha,very good (a very good herbicidal activity is given at values of at least 85)
Nc1nc(C2CCCC2)nc(N(C(=O)C2CCCC2)c2c(F)c(F)cc(F)c2F)n1 [Example 304],herbicidal activity,[6]; 1000 g/ha,very good (a very good herbicidal activity is given at values of at least 85)
same,herbicidal activity,SETFA (Setaria faberi); 1000 g/ha,very good (a very good herbicidal activity is given at values of at least 85)
same,herbicidal activity,[3]; 1000 g/ha,very good (a very good herbicidal activity is given at values of at least 85)
CN(c1nc(N)nc(C(C)(C)F)n1)c1c(F)c(F)c(F)c(F)c1F [Example 307],herbicidal activity,SETFA (Setaria faberi); 125 g/ha,very good (a very good herbicidal activity is given at values of at least 85)
same,herbicidal activity,[3]; 125 g/ha,very good (a very good herbicidal activity is given at values of at least 85)
